Test results taken from patent US20070078177A1, “METHODS AND COMPOSITIONS FOR TREATING NON AGE RELATED HEARING IMPAIRMENT IN A SUBJECT” (WASHINGTON UNIVERSITY IN ST. LOUIS, priority 2005, published 2007).
Entries after “also recorded” stand apart in the source; their conditions may differ.

Legend:
[1] = system: outer hair cells (OHCs), inner hair cells (IHCs), and spiral ganglion neurons (SGNs); test: Cochlear histology after noise exposure: counting of IHCs, OHCs and SGNs, cytocochleograms; assay type: in vivo, C57BL/6J mice; conditions: for number (density) of SGNs, control vs drug-treated mice: apex, middle and base regions, male mice at 3 months, drug after noise, FIG. 6B (trimethadione), FIG. 7 (ethosuximide); for gross morphological changes in mid-modiolar sections, control vs drug-treated mice: drug after noise exposure
Description: The methods for fixing, processing and analyzing the mouse cochlea have been described in detail elsewhere (Ohlemiller et al., 2000; Ou et al., 2000). Briefly, mice were perfused transcardially with cold 2% paraformaldehyde and 2% glutaraldehyde in 0.1 M phosphate buffer. Both cochleae were isolated, the stapes removed, and immersed in the same fixative. Complete exposure of the cochlea to the fixative was ensured by making a small hole at the apex of the cochlear capsule, gently circulating the fixative over the cochlea using a transfer pipet. After decalcification in sodium EDTA, the cochleae were post-fixed in buffered 1% osmium tetroxide, dehydrated in an ascending acetone series, and embedded in Epon. For SGN counting, mid-modiolar sections (4 μm) were cut and about fifty sections were collected for each cochlea. The number of SGN nuclei at the apex, middle, and base was counted every fifth section (total 10 sections per one cochlea) under a 200× visual field using a computerized planimetry program of Image Pro Plus (Media Cybernetics). Because all sections were cut in a similar orientation, it was possible to evaluate comparisons between two groups by Mann-Whitney tests. For hair cell counting, cochleae were dissected into roughly half-turn segments. These half-turn segments were examined in mineral oil under Nomarski optics, using a calibrated ocular. Three separate inner hair cell (IHC) and outer hair cell (OHC) counts were obtained from non-overlapping 100 μm segments. Cytocochleogrames were prepared for one pair of mice with the best prophylactic function of trimethadione. The percentages of missing IHCs and OHCs were determined by dividing the number of missing hair cells by the total number of hair cells (i.e. present plus absent) in the organ of Corti.

[2] = system: noise-induced hearing loss (NIHL); test: Therapeutic function on noise-induced hearing loss: ABR thresholds, drug in drinking water right after noise exposure
[3] = stated as reason for selecting TMO; cited from earlier work
[4] = system: noise-induced hearing loss (NIHL); test: Prophylactic function on noise-induced hearing loss: ABR thresholds, drug in drinking water before noise exposure; conditions: for ABR threshold shift prevented, PTS: Drug-Noise-2w; for ABR threshold shift prevented, PTS / ABR threshold shift prevented, TTS: P<0.01; for ABR threshold shift prevented, TTS: Drug-Noise-24h
[5] = both male and female mice, 3 months old, drug in drinking water two weeks before noise, one-way ANOVA p<0.05, FIG. 5
[6] = female mice, across five tested frequencies, FIG. 5B
[7] = male mice, five tested frequencies from 5 to 40K, FIG. 5A

CCC1(C)CC(=O)NC1=O (stereo not drawn) [ethosuximide]
number (density) of SGNs, control vs drug-treated mice [1]: no difference; also recorded: not significantly different | gross morphological changes in mid-modiolar sections, control vs drug-treated mice [1]: No obvious gross morphological changes | temporary threshold shift (TTS) vs control ([2]; 24 hours after noise (wideband, 110 dB, 30 min), ethosuximide 400 mg/kg/day in drinking water starting immediately after noise, FIG. 2B): significantly lower | permanent threshold shift (PTS) vs control ([2]; 21 days after noise, ethosuximide 400 mg/kg/day in drinking water for three weeks starting immediately after noise, FIG. 2C): significantly lower | ABR threshold before the noise exposure vs control ([2]; ethosuximide group vs control, n=5, 2 month-old mice, FIG. 2A): no difference | ABR threshold shift, PTS, vs control ([2]; male mice (n=5), 3 months old, ethosuximide in drinking water right after noise, P<0.01, FIG. 4): less ABR threshold shift; also recorded: significant protection | ABR threshold shift, TTS, vs control ([2]; male mice (n=5), 3 months old, ethosuximide in drinking water right after noise, P<0.05, FIG. 4): less ABR threshold shift; also recorded: significant protection

CN1C(=O)OC(C)(C)C1=O [trimethadione]
loss of IHCs ([1]; apex region (0 to 8 kHz), single treated mouse of the pair, control 0.3%): ~1.9% | loss of OHCs ([1]; apex region (0 to 8 kHz), single treated mouse of the pair, control 4.6%): ~3.5% | number (density) of SGNs, control vs drug-treated mice [1]: no difference; also recorded: not significantly different | missing IHCs ([1]; base region (32 kHz to 64 kHz), single treated mouse of the pair, control 22.2%, FIG. 8): about 1.8% | missing OHCs ([1]; base region (32 kHz to 64 kHz), single treated mouse of the pair, control 74.4%, FIG. 8): ~68.8% | gross morphological changes in mid-modiolar sections, control vs drug-treated mice [1]: No obvious gross morphological changes | morphological differences among groups ([1]; groups testing the prophylactic function): no obvious morphological differences | IHC numbers, control vs drug-treated mice ([1]; hook, low base, upper base and apex of cochlea, 3-months-old male mice (n=3), FIG. 6A): no significant difference | OHC numbers, control vs drug-treated mice ([1]; hook, low base, upper base and apex of cochlea, 3-months-old male mice (n=3), Noise-Only-2w vs Noise-Drug-2w, FIG. 6A): trend for the loss of more outer hair cells; also recorded: no significant difference | water solubility [3]: water soluble | temporary threshold shift (TTS) vs control ([4]; 24 hours after noise (wideband, 110 dB, 30 min), TMO 200 mg/kg/day in drinking water three weeks before noise, all seven frequencies, FIG. 1B): significantly lower | permanent threshold shift (PTS) vs control ([4]; 14 days after noise (wideband, 110 dB, 30 min), TMO 200 mg/kg/day in drinking water three weeks before noise, all seven frequencies, FIG. 1C, listed as TMO): significantly lower | ABR threshold before the noise exposure vs control ([4]; TMO 200 mg/kg body weight/day in drinking water, one week after TMO treatment, n=5, 8 month-old mice, FIG. 1A): no difference | ABR threshold shift at the apex region ([4]; apex region (0 to 8 kHz), single treated mouse of the pair, control about 25 dB): no shift | protection from NIHL, PTS [4, 5]: significant protection | protection from NIHL, TTS [4, 5]: significant protection | ABR threshold shift after the noise exposure ([4]; both male and female mice, prophylactic treatment): dramatically reduced | ABR threshold shift prevented, PTS [4, 6]: ~7.0 dB | ABR threshold shift prevented, TTS [4, 6]: about 5.0 dB | ABR threshold shift prevented, PTS [4, 7]: ~9.7 dB | ABR threshold shift prevented, TTS [4, 7]: about 4.3 dB | permanent ABR threshold shift among five frequencies tested ([4]; single treated mouse (male, 3 months) of a selected pair, drug two weeks before noise, control mouse about 35 dB, FIG. 8): 11 dB | ABR threshold at 40 kHz before the noise exposure ([4]; single treated mouse of the pair, same value in the control mouse): 28 dB | ABR threshold shift, TTS, vs control ([2]; female mice (n=4), 24 h after noise, drug right after noise, FIG. 3B): no significant difference | ABR threshold shift, PTS, vs control ([2]; female mice (n=4), two weeks after noise, drug right after noise, FIG. 3B): no statistical difference | protection from NIHL, TTS ([2]; male mice (n=3), 3 months old, drug in drinking water right after noise, one-way ANOVA p<0.05, FIG. 3A): significant protection | ABR threshold shift, PTS, vs control ([2]; male mice (n=3), two weeks after noise, drug right after noise, P<0.01): significantly less; also recorded: significant protection | less ABR threshold shift than controls, TTS ([2]; male mice, 24 h after noise, drug in drinking water right after noise, across all five frequencies, P<0.05, FIG. 3A): about 10 dB | pre-exposure ABR thresholds (Pre-Noise-Only vs Pre-Noise-Drug) ([2]; male or female mice, 3 months old, FIGS. 3A and 3B): no significant difference
